From article PMC4685510, “A Cell Biologist’s Field Guide to Aurora Kinase Inhibitors” (Frontiers in Oncology, 2015)

Tests used:
Assay in all cases: biochemical
Type in all cases: biochemical
[1] = target: 363 human kinases (including Aurora A/B/C) (Homo sapiens, UniProt P51812); details: RSK2; for remaining activity at 0.1 µM: 100 nM; for remaining activity at 0.1 µM / remaining activity at 0.5 µM: read-out: % Enzyme Activity (relative to DMSO controls)
Source text: (§1) However, the Aurora A/B selectivity ratios derived from our in vitro and in vivo data can be compared to prioritize inhibitors.

[2] = target: T1, 363 human kinases (including Aurora A/B/C) (Homo sapiens, UniProt Q8WTQ7); details: GRK7; for remaining activity at 0.1 µM: 100 nM; for remaining activity at 0.1 µM / remaining activity at 0.5 µM: read-out: % Enzyme Activity (relative to DMSO controls)
T1 sequence (Q8WTQ7 1-553): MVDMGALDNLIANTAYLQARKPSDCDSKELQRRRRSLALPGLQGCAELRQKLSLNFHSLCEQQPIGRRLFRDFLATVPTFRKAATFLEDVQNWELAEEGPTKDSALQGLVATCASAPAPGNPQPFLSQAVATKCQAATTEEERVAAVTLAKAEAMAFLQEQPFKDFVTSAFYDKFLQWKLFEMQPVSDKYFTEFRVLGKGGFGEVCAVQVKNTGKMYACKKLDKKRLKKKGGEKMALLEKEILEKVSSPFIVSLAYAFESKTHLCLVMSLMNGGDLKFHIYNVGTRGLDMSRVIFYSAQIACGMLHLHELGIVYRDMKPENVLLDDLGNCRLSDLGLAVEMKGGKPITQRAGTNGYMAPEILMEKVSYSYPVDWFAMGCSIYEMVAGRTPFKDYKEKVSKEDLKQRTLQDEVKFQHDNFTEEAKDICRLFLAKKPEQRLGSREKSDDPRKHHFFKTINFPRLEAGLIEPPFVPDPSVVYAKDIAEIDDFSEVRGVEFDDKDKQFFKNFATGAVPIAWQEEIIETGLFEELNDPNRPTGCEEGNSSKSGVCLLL
Source text: as §1

[3] = target: 363 human kinases (including Aurora A/B/C) (Homo sapiens, UniProt O75116); details: ROCK2; for remaining activity at 0.1 µM: 100 nM; for remaining activity at 0.1 µM / remaining activity at 0.5 µM: read-out: % Enzyme Activity (relative to DMSO controls)
Sequence of 363 human kinases (including Aurora A/B/C) (Homo sapiens, UniProt O75116) (O75116 whole entry): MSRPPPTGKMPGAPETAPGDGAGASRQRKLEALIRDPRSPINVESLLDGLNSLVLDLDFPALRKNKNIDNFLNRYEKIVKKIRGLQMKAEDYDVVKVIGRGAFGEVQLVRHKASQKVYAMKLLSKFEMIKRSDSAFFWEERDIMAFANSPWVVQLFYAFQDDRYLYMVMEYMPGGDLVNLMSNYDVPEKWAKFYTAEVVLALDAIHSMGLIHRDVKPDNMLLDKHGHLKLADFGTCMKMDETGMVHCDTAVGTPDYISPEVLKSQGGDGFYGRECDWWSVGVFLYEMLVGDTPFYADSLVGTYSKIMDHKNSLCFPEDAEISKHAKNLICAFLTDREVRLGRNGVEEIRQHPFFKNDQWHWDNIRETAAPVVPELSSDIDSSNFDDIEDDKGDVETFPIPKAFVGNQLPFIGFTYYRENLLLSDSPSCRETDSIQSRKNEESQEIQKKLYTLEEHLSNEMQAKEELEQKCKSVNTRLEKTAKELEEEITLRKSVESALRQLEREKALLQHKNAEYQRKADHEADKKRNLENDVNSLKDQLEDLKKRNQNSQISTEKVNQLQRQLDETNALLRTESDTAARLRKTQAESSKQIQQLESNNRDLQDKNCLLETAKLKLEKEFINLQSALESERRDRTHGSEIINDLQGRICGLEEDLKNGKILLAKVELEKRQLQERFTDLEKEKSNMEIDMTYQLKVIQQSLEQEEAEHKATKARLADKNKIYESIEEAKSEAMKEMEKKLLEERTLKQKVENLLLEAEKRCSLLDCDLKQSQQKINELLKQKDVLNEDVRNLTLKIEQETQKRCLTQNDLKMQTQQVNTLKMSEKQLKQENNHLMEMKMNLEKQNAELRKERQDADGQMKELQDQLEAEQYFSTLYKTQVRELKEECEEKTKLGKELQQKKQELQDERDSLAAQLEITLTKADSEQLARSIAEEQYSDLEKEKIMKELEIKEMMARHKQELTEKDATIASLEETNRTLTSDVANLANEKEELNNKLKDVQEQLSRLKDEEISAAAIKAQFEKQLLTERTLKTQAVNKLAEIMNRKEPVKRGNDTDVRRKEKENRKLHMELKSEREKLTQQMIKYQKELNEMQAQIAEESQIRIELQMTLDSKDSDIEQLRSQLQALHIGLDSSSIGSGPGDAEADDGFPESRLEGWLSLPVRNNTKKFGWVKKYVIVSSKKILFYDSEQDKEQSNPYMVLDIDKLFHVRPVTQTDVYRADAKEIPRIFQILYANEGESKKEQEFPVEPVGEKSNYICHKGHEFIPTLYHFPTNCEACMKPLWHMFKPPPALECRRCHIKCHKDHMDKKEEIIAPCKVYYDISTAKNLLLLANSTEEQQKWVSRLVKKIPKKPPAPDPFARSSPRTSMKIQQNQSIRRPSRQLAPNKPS
Source text: as §1

[4] = target: T2, 363 human kinases (including Aurora A/B/C) (Homo sapiens, UniProt P10398); details: ARAF, [ATP] 15 µM; for remaining activity at 0.1 µM: 100 nM; for remaining activity at 0.1 µM / remaining activity at 0.5 µM: read-out: % Enzyme Activity (relative to DMSO controls)
T2 sequence (P10398 1-606): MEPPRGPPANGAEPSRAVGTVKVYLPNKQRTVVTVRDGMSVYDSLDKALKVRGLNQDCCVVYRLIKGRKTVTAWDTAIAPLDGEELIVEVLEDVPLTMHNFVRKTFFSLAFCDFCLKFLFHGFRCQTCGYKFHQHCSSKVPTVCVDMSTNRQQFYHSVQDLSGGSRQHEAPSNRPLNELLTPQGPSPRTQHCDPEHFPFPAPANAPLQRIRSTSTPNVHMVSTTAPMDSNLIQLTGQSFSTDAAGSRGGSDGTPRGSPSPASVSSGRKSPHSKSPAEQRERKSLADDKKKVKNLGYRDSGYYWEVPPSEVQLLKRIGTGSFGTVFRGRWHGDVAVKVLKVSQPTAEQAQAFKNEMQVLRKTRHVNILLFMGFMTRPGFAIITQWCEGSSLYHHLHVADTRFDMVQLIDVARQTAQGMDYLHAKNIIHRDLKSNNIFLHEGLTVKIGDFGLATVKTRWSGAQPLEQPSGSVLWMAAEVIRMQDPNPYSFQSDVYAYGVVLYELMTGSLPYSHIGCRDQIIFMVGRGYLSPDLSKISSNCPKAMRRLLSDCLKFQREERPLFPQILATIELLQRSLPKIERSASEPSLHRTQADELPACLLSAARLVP
Source text: as §1

[5] = target: 363 human kinases (including Aurora A/B/C) (Homo sapiens, UniProt Q9H3Y6); details: SRMS; for remaining activity at 0.1 µM: 100 nM; for remaining activity at 0.1 µM / remaining activity at 0.5 µM: read-out: % Enzyme Activity (relative to DMSO controls)
Sequence of 363 human kinases (including Aurora A/B/C) (Homo sapiens, UniProt Q9H3Y6) (Q9H3Y6 whole entry): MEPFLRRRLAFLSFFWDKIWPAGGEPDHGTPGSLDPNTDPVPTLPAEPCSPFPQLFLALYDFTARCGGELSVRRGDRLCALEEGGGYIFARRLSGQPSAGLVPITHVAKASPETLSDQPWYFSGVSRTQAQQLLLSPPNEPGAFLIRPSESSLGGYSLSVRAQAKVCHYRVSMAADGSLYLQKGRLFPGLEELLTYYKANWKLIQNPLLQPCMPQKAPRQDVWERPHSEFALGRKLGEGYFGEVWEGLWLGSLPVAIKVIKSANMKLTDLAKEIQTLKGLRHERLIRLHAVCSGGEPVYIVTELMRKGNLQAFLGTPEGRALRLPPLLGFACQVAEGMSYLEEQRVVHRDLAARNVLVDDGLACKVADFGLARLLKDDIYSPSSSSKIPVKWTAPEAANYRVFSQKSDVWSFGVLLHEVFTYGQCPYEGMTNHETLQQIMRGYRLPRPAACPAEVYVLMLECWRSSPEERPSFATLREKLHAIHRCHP
Source text: as §1

[6] = target: 363 human kinases (including Aurora A/B/C) (Homo sapiens, UniProt Q13555); details: CAMK2g, [ATP] 2.5 µM; for remaining activity at 0.1 µM: 100 nM; for remaining activity at 0.1 µM / remaining activity at 0.5 µM: read-out: % Enzyme Activity (relative to DMSO controls)
Sequence of 363 human kinases (including Aurora A/B/C) (Homo sapiens, UniProt Q13555) (Q13555 whole entry): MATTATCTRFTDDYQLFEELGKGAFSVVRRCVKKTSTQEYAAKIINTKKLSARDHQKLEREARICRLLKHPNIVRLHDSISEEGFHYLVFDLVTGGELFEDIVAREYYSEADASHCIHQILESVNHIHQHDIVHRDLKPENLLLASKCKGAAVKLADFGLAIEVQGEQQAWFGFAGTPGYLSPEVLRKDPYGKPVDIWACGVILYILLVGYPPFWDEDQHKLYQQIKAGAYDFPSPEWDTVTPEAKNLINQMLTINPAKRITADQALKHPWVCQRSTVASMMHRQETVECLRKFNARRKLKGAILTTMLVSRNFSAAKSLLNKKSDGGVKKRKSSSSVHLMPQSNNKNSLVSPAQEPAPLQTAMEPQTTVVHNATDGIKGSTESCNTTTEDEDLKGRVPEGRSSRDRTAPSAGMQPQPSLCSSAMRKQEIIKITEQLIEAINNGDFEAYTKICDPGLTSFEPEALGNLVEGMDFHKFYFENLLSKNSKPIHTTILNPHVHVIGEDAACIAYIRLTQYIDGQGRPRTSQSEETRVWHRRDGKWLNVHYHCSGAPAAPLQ
Source text: as §1

[7] = target: 363 human kinases (including Aurora A/B/C) (Homo sapiens, UniProt P14616); details: IRR/INSRR; for remaining activity at 0.1 µM: 100 nM; for remaining activity at 0.1 µM / remaining activity at 0.5 µM: read-out: % Enzyme Activity (relative to DMSO controls)
Sequence of 363 human kinases (including Aurora A/B/C) (Homo sapiens, UniProt P14616) (P14616 27-1297): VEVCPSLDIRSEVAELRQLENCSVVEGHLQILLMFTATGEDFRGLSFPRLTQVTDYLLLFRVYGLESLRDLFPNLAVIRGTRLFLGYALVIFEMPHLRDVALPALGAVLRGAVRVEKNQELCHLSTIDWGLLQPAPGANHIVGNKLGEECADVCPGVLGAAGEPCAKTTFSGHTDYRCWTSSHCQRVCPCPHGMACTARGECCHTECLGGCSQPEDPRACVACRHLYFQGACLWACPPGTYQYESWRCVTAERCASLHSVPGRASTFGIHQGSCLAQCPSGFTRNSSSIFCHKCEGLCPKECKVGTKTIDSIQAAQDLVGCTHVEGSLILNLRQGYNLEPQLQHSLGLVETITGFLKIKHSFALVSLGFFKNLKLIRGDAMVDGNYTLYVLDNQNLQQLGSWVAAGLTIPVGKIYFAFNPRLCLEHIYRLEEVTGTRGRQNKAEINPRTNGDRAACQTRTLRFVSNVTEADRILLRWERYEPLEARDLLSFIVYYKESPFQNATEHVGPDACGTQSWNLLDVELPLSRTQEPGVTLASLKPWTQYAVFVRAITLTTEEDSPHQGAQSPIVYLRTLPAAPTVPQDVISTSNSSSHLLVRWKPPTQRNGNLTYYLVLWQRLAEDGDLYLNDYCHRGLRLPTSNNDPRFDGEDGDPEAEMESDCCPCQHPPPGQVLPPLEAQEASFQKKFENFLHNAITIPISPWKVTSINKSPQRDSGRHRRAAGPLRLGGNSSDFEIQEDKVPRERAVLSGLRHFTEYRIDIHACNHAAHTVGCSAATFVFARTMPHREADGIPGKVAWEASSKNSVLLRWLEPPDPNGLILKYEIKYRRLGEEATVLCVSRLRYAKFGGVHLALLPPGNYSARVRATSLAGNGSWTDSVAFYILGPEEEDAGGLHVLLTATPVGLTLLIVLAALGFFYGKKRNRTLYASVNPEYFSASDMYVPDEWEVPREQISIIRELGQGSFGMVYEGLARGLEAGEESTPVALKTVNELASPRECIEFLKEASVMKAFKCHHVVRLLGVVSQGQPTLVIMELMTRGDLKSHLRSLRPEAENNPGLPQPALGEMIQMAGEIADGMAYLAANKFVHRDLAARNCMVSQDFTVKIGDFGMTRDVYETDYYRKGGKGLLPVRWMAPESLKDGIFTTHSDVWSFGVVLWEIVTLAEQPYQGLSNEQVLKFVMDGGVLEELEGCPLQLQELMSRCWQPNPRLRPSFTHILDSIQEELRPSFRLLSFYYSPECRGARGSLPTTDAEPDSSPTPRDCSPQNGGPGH
Source text: as §1

[8] = target: 363 human kinases (including Aurora A/B/C) (Homo sapiens, UniProt Q96NX5); details: CAMK1g, [ATP] 30 µM; for remaining activity at 0.1 µM: 100 nM; for remaining activity at 0.1 µM / remaining activity at 0.5 µM: read-out: % Enzyme Activity (relative to DMSO controls)
Sequence of 363 human kinases (including Aurora A/B/C) (Homo sapiens, UniProt Q96NX5) (Q96NX5 whole entry): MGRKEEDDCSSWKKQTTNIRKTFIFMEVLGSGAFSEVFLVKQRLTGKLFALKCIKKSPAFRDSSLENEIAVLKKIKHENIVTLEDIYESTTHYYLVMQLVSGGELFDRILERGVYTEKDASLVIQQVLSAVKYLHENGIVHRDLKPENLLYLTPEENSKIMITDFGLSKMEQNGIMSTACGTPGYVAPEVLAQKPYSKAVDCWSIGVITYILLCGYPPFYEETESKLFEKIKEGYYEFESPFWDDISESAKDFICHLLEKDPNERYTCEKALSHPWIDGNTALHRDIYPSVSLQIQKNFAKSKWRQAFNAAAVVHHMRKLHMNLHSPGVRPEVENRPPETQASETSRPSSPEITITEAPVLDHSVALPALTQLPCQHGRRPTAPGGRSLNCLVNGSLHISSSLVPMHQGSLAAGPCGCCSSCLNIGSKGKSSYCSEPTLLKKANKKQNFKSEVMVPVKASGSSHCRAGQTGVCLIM
Source text: as §1

[9] = target: T3, 363 human kinases (including Aurora A/B/C) (Homo sapiens, UniProt Q9UHD2); details: TBK1; for remaining activity at 0.1 µM: 100 nM; for remaining activity at 0.1 µM / remaining activity at 0.5 µM: read-out: % Enzyme Activity (relative to DMSO controls)
T3 sequence (Q9UHD2 1-729): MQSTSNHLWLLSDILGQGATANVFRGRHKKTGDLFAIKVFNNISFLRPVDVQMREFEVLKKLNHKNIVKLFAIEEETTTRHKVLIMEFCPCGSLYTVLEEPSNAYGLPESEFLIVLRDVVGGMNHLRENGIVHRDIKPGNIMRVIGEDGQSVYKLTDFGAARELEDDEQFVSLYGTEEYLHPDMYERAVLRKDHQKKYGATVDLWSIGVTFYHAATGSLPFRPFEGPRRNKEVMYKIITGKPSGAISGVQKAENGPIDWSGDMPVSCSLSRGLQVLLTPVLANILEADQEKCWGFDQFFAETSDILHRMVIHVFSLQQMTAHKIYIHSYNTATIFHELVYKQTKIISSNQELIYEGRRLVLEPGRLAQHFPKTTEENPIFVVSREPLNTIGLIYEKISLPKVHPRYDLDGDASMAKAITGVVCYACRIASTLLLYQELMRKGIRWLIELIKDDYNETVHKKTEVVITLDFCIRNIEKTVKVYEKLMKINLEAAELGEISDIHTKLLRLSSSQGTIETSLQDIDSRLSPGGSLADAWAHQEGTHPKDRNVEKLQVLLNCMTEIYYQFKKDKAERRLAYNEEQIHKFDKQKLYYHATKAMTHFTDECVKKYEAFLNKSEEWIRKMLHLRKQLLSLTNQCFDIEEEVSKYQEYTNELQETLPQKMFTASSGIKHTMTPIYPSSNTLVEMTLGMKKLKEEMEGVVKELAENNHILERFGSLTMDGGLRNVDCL
Source text: as §1

Sequence of 363 human kinases (including Aurora A/B/C) (Homo sapiens, UniProt P51812) (P51812 whole entry): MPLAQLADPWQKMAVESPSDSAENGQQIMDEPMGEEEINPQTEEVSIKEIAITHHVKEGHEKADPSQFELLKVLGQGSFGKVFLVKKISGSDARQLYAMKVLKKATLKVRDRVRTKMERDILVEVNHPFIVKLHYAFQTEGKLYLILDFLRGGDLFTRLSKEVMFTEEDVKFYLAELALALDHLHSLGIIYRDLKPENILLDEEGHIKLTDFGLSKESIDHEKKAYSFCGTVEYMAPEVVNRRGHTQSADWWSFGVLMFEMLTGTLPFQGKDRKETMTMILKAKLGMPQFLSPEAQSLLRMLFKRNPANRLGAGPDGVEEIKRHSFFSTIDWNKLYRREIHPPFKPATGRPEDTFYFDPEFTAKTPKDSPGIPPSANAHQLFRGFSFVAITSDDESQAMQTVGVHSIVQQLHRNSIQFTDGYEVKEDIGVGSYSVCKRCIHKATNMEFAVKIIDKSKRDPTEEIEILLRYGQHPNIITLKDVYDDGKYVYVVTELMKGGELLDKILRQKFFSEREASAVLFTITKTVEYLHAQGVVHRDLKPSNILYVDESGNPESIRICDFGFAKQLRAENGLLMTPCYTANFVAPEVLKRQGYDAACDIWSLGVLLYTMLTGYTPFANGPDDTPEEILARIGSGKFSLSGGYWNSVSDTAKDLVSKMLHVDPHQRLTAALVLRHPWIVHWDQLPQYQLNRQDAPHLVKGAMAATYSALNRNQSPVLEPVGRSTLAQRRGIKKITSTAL

| Compound | remaining activity at 0.1 µM [1] | remaining activity at 0.1 µM [2] | remaining activity at 0.1 µM [3] | remaining activity at 0.1 µM [4] | remaining activity at 0.1 µM [5] | remaining activity at 0.1 µM [6] | remaining activity at 0.1 µM [7] | remaining activity at 0.1 µM [8] | remaining activity at 0.1 µM [9] | remaining activity at 0.5 µM ([1]; 500 nM) | remaining activity at 0.5 µM ([2]; 500 nM) | remaining activity at 0.5 µM ([3]; 500 nM) | remaining activity at 0.5 µM ([4]; 500 nM) | remaining activity at 0.5 µM ([5]; 500 nM) | remaining activity at 0.5 µM ([6]; 500 nM) | remaining activity at 0.5 µM ([7]; 500 nM) | remaining activity at 0.5 µM ([8]; 500 nM) | remaining activity at 0.5 µM ([9]; 500 nM) | other results |
| --- | --- | --- | --- | --- | --- | --- | --- | --- | --- | --- | --- | --- | --- | --- | --- | --- | --- | --- | --- |
| CCn1cc(-c2ccnc3[nH]c(-c4cccc(CN(C)C)c4)cc23)c(-c2ccc(NC(=O)N(C)C)cc2)n1 [GSK1070916] | 107% | 100% | 71.8% | 94.9% | 95% | 94.5% | 99.5% | 96.3% | 93.7% | – | – | – | – | – | – | – | – | – | – |
| O=C(c1cccc(Cl)c1F)N1CCN(Cc2cccc(Nc3nccs3)n2)CC1 [MK-8745] | – | – | – | – | – | – | – | – | – | 105% | 101% | 92.6% | 96% | 98.4% | 94.3% | 76.4% | 91.9% | 105% | % Enzyme Activity (relative to DMSO controls) ([1]; 500 nM): 101.95%; % Enzyme Activity (relative to DMSO controls) ([2]; 500 nM): 97.48%; % Enzyme Activity (relative to DMSO controls) ([3]; 500 nM): 91.55%; % Enzyme Activity (relative to DMSO controls) ([4]; 500 nM): 95.99%; % Enzyme Activity (relative to DMSO controls) ([5]; 500 nM): 96.62%; % Enzyme Activity (relative to DMSO controls) ([6]; 500 nM): 92.25%; % Enzyme Activity (relative to DMSO controls) ([7]; 500 nM): 75.20%; % Enzyme Activity (relative to DMSO controls) ([8]; 500 nM): 91.44%; % Enzyme Activity (relative to DMSO controls) ([9]; 500 nM): 102.60% |
| O=C(O)[C@]1(Cc2cccc(Nc3nccs3)n2)CC[C@@H](Oc2cccc(Cl)c2F)CC1 [MK-5108] | 101% | 98.7% | 99.6% | 96.4% | 95.1% | 91.1% | 81.7% | 100% | 108% | 99.5% | 94.2% | 98.2% | 94.4% | 94.8% | 94.4% | 46.3% | 93.7% | 88.6% | – |
